Values of other authors in patent US20240197617A1, “ANTI-AGING COSMETIC COMPOSITION BASED ON RESVERATROL AND MAGNOLIA” (Tomcat International Limited, priority 2021, published 2024).

Tested on: TET enzymes
Conditions: study carried out on a mouse

SMILES: C=CCc1ccc(O)c(-c2ccc(O)c(CC=C)c2)c1 [honokiol]
- Effect on activity of TET enzymes: stimulated the activity of TET enzymes
